Measurements from the supplement of paper PMC10307832.

Legend:
Assay in all cases: relative viability (nuclei count vs DMSO), 5 days (fraction); higher = more cells survive
Dovitinib + Bortezomib = compound: CN1CCN(c2ccc3nc(-c4c(N)c5c(F)cccc5[nH]c4=O)[nH]c3c2)CC1 [Dovitinib] + CC(C)C[C@H](NC(=O)[C@H](Cc1ccccc1)NC(=O)c1cnccn1)B(O)O [Bortezomib] (partner 0.002 µM)
How it was run: (§1)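 Five library-drug doses in √10 steps were combined with a fixed anchor-drug dose, or a single drug was given alone, by pin tool to lung cancer cell lines in 1536-well plates the day after seeding. Nuclei were stained and counted after 5 days. Relative viability is the nuclei count in treated wells over that in vehicle wells, taken as the median of duplicate plates.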

Dovitinib + Pictilisib = compound: CN1CCN(c2ccc3nc(-c4c(N)c5c(F)cccc5[nH]c4=O)[nH]c3c2)CC1 [Dovitinib] + CS(=O)(=O)N1CCN(Cc2cc3nc(-c4cccc5[nH]ncc45)nc(N4CCOCC4)c3s2)CC1 [Pictilisib] (partner 1 µM)
How it was run: as §1

Dovitinib + Olaparib = compound: CN1CCN(c2ccc3nc(-c4c(N)c5c(F)cccc5[nH]c4=O)[nH]c3c2)CC1 [Dovitinib] + O=C(c1cc(Cc2n[nH]c(=O)c3ccccc23)ccc1F)N1CCN(C(=O)C2CC2)CC1 [Olaparib] (partner 8 µM)
How it was run: as §1

Dovitinib + Trametinib = compound: CN1CCN(c2ccc3nc(-c4c(N)c5c(F)cccc5[nH]c4=O)[nH]c3c2)CC1 [Dovitinib] + CC(=O)Nc1cccc(-n2c(=O)n(C3CC3)c(=O)c3c(Nc4ccc(I)cc4F)n(C)c(=O)c(C)c32)c1 [Trametinib] (partner 0.02 µM)
How it was run: as §1

Cell Line	relative viability (Dovitinib + Bortezomib; first compound 0.02 µM)	relative viability (Dovitinib + Bortezomib; first compound 0.06325 µM)	relative viability (Dovitinib + Bortezomib; first compound 0.2 µM)	relative viability (Dovitinib + Bortezomib; first compound 0.6325 µM)	relative viability (Dovitinib + Bortezomib; first compound 2 µM)	relative viability (Dovitinib + Pictilisib; first compound 0.02 µM)	relative viability (Dovitinib + Pictilisib; first compound 0.06325 µM)	relative viability (Dovitinib + Pictilisib; first compound 0.2 µM)	relative viability (Dovitinib + Pictilisib; first compound 0.6325 µM)	relative viability (Dovitinib + Pictilisib; first compound 2 µM)	relative viability (Dovitinib + Olaparib; first compound 0.02 µM)	relative viability (Dovitinib + Olaparib; first compound 0.06325 µM)	relative viability (Dovitinib + Olaparib; first compound 0.2 µM)	relative viability (Dovitinib + Olaparib; first compound 0.6325 µM)	relative viability (Dovitinib + Olaparib; first compound 2 µM)	relative viability (Dovitinib + Trametinib; first compound 0.02 µM)	relative viability (Dovitinib + Trametinib; first compound 0.06325 µM)	relative viability (Dovitinib + Trametinib; first compound 0.2 µM)	relative viability (Dovitinib + Trametinib; first compound 0.6325 µM)	relative viability (Dovitinib + Trametinib; first compound 2 µM)
ChaGo-K-1	1.1	1.01	0.952	1.04	1.03	0.653	0.654	0.829	0.883	0.972	0.398	0.461	0.397	0.395	0.366	0.868	0.875	0.936	0.885	0.778
EBC-1	0.543	0.488	0.571	0.564	0.587	0.422	0.35	0.336	0.342	0.453	0.723	0.69	0.664	0.712	0.677					
EKVX	1.08	1.08	1.22	1.06	1.08	0.451	0.366	0.462	0.506	0.463	0.897	0.723	0.862	0.831	0.904	0.395	0.32	0.332	0.351	0.327
EMC-BAC-2	1.05	0.995	1.08	1.05	1.04	0.515	0.516	0.497	0.512	0.56	0.569	0.513	0.5	0.486	0.504	1.2	0.811	0.986	0.873	0.945
EPLC-272H	0.917	0.949	0.883	0.875	0.905	0.35	0.277	0.311	0.383	0.353	0.815	0.893	0.793	0.681	0.57	0.306	0.269	0.298	0.269	0.303
H3255	0.773	0.642	0.804	0.739	0.788	0.539	0.514	0.498	0.516	0.514	0.549	0.553	0.547	0.542	0.548	0.699	0.578	0.746	0.614	0.566
HARA	1.26	1.16	1.01	1.17	1.2	0.372	0.259	0.367	0.398	0.417	0.973	0.921	1.07	0.775	0.885	0.89	0.924	0.484	0.827	0.878
HCC-15	1.03	1.07	1.02	1.05	1.02	0.827	0.742	0.767	0.82	0.722	0.687	0.703	0.71	0.696	0.726	0.434	0.342	0.369	0.341	0.377
